From ChEMBL document CHEMBL2375213, “Synthesis and anticancer activity of novel spiro-isoxazoline and spiro-isoxazolidine derivatives of α-santonin” (Eur J Med Chem, 2013) come the findings set out here.

Holding throughout (assay type): functional, cell-based
The test system of one assay is HEp-2. Description: Antiproliferative activity against human Hep2 cells after 48 hrs by sulforhodamine B assay. As to conditions: HEp-2, 48 h.
A further assay relates to MCF7. The assay is described as follows: Antiproliferative activity against human MCF7 cells after 48 hrs by sulforhodamine B assay. As to conditions: MCF7, 48 h.
A further assay has as its system A549. The assay is described as follows: Antiproliferative activity against human A549 cells after 48 hrs by sulforhodamine B assay. Conditions: A549, 48 h.
For the next assay, the system named is PC-3. The assay is described as follows: Antiproliferative activity against human PC3 cells after 48 hrs by sulforhodamine B assay. Conditions: PC-3, 48 h.
The subject of the next assay is HCT-116. The assay is described as follows: Antiproliferative activity against human HCT116 cells after 48 hrs by sulforhodamine B assay. Conditions: HCT-116, 48 h.
The test system of another assay is THP-1. Description: Antiproliferative activity against human THP1 cells after 48 hrs by sulforhodamine B assay. As to conditions: THP-1, 48 h.

With `CC1=C2[C@H]3OC(=O)C4(C[C@H](c5cccc6ccccc56)N(c5ccccc5)O4)[C@@H]3CC[C@@]2(C)C=CC1=O` (stereo partly drawn), the IC50 is 100 µM with HEp-2; 14 µM in the assay on MCF7; 1.4 µM in the assay on A549; 0.6 µM with PC-3; 100 µM with HCT-116; 100 µM in the assay on THP-1.
As for `CC1=C2[C@H]3OC(=O)C4(C[C@@H](c5ccc([N+](=O)[O-])cc5)N(c5ccccc5)O4)[C@@H]3CC[C@@]2(C)C=CC1=O` (single isomer, unassigned), the IC50 in the assay with HEp-2 worked out at 100 µM; in the assay on MCF7, 0.9 µM; in the assay with A549, 66 µM; in the assay with PC-3, 0.6 µM; in the assay with HCT-116 it was 100 µM; in the assay on THP-1 it was 0.1 µM.
In the case of `CC1=C2[C@H]3OC(=O)C4(CC(c5ccccc5)=NO4)[C@@H]3CC[C@@]2(C)C=CC1=O` (stereo partly drawn), the IC50 in the assay with HEp-2 turned out to be 100 µM; in the assay on MCF7, 100 µM; in the assay on A549 it was 100 µM; in the assay with PC-3 it was 78 µM; in the assay with HCT-116, 100 µM; with THP-1, 100 µM.
Regarding `COc1cccc2c1C(=O)c1c(O)c3c(c(O)c1C2=O)C[C@@](O)(C(=O)CO)C[C@@H]3O[C@H]1C[C@H](N)[C@H](O)[C@H](C)O1` [DOXORUBICIN], the IC50 in the assay on MCF7 was 0.5 µM; with PC-3, 6 µM.
Regarding `O=c1[nH]cc(F)c(=O)[nH]1` [FLUOROURACIL], the IC50 with HEp-2 worked out at 4.5 µM; in the assay on A549, 4.9 µM; with PC-3, 2.2 µM; with THP-1 it was 1 µM.
Take `CC1=C2[C@H]3OC(=O)C4(CC(c5ccc(Br)cc5)=NO4)[C@@H]3CC[C@@]2(C)C=CC1=O` (stereo partly drawn): the IC50 is 100 µM in the assay with HEp-2; 0.1 µM in the assay on MCF7; 58 µM in the assay with A549; 100 µM with PC-3; 100 µM in the assay with HCT-116; 100 µM with THP-1.
In the case of `CC1=C2[C@H]3OC(=O)C4(CC(c5ccc([N+](=O)[O-])cc5)=NO4)[C@@H]3CC[C@@]2(C)C=CC1=O` (stereo partly drawn), the IC50 in the assay on HEp-2 amounted to 100 µM; in the assay with MCF7, 56 µM; in the assay with A549, 100 µM; with PC-3 it was 100 µM; in the assay with HCT-116 it was 55 µM; in the assay with THP-1, 100 µM.
On to `CC1=C2[C@H]3OC(=O)C4(CC(c5ccc6ccccc6c5)=NO4)[C@@H]3CC[C@@]2(C)C=CC1=O` (stereo partly drawn), for which the half-maximal inhibitory concentration (IC50) amounted to 100 µM in the assay with HEp-2; 30 µM with MCF7; 2.9 µM in the assay on A549; 0.6 µM in the assay on PC-3; 100 µM with HCT-116; 0.4 µM with THP-1.
For the compound `CC1=C2[C@H]3OC(=O)C4(C[C@@H](c5cccc6ccccc56)N(c5ccccc5)O4)[C@@H]3CC[C@@]2(C)C=CC1=O` (stereo partly drawn), the IC50 in the assay on HEp-2 is 100 µM; in the assay with MCF7, 82 µM; in the assay with A549, 3.3 µM; in the assay on PC-3 it was 0.7 µM; in the assay with HCT-116, 100 µM; in the assay on THP-1, 59 µM.
For the compound `CC1=C2[C@H]3OC(=O)C4(CC(c5ccc(O)cc5)=NO4)[C@@H]3CC[C@@]2(C)C=CC1=O` (stereo partly drawn), the IC50 with HEp-2 turned out to be 40 µM; in the assay on MCF7 it was 100 µM; in the assay with A549, 3.8 µM; in the assay on PC-3, 55 µM; with HCT-116 it was 8.2 µM; in the assay with THP-1, 100 µM.
Turning to `CC1=C2[C@H]3OC(=O)C4(CC(c5cccc(F)c5)=NO4)[C@@H]3CC[C@@]2(C)C=CC1=O` (stereo partly drawn), the IC50 with HEp-2 worked out at 100 µM; in the assay with MCF7, 0.4 µM; in the assay with A549, 0.7 µM; with PC-3, 100 µM; in the assay with HCT-116 it was 100 µM; with THP-1, 100 µM.
`COc1ccc([C@H]2CC3(ON2c2ccccc2)C(=O)O[C@@H]2C4=C(C)C(=O)C=C[C@]4(C)CC[C@H]23)cc1Br` (stereo partly drawn): the IC50 with HEp-2 was 100 µM; with MCF7 it was 100 µM; in the assay with A549, 8.5 µM; in the assay on PC-3, 0.1 µM; in the assay on HCT-116, 100 µM; in the assay on THP-1, 100 µM.
As to `COc1ccc(C2=NOC3(C2)C(=O)O[C@@H]2C4=C(C)C(=O)C=C[C@]4(C)CC[C@H]23)cc1Br` (stereo partly drawn), the IC50 was found to be 100 µM in the assay with HEp-2; 100 µM in the assay on MCF7; 100 µM with A549; 100 µM with PC-3; 50 µM with HCT-116; 21 µM in the assay with THP-1.
For the compound `CC1=C2[C@H]3OC(=O)C4(C[C@@H](c5cccc([N+](=O)[O-])c5)N(c5ccccc5)O4)[C@@H]3CC[C@@]2(C)C=CC1=O` (stereo partly drawn), the IC50 in the assay with HEp-2 was 100 µM; in the assay with MCF7, 23 µM; with A549 it was 10 µM; in the assay with PC-3, 0.9 µM; with HCT-116 it was 48 µM; in the assay on THP-1 it was 42 µM.
In the case of `CC1=C2[C@H]3OC(=O)C4(CC(c5cc(Cl)ccc5Cl)=NO4)[C@@H]3CC[C@@]2(C)C=CC1=O` (stereo partly drawn), the half-maximal inhibitory concentration (IC50) with HEp-2 was found to be 100 µM; in the assay with MCF7, 39 µM; with A549 it was 100 µM; with PC-3, 100 µM; with HCT-116, 61 µM; with THP-1, 100 µM.
In the case of `CC1=C2[C@H]3OC(=O)C4(CC(c5ccc(F)cc5)=NO4)[C@@H]3CC[C@@]2(C)C=CC1=O` (stereo partly drawn), the IC50 with HEp-2 was 100 µM; with MCF7, 100 µM; in the assay with A549 it was 61 µM; in the assay on PC-3, 100 µM; in the assay with HCT-116, 100 µM; in the assay on THP-1, 100 µM.
In the assay on HCT-116, `CO[C@@]12[C@H](COC(N)=O)C3=C(C(=O)C(C)=C(N)C3=O)N1C[C@@H]1N[C@@H]12` [MITOMYCIN] had an IC50 of 0.5 µM. In other words, the sub-micromolar range.
As to `CC1=C2[C@H]3OC(=O)C4(CC(c5ccccc5Cl)=NO4)[C@@H]3CC[C@@]2(C)C=CC1=O` (stereo partly drawn), the IC50 with HEp-2 amounted to 7.3 µM; with MCF7 it was 0.5 µM; in the assay with A549, 5.9 µM; with PC-3, 0.9 µM; in the assay on HCT-116, 100 µM; with THP-1, 0.2 µM.
On to `CC1=C2[C@H]3OC(=O)C4(C[C@@H](c5ccc(F)c(Br)c5)N(c5ccccc5)O4)[C@@H]3CC[C@@]2(C)C=CC1=O` (stereo partly drawn), for which the IC50 was found to be 100 µM in the assay on HEp-2; 0.7 µM in the assay with MCF7; 100 µM in the assay with A549; 0.8 µM with PC-3; 4.3 µM with HCT-116; 2.7 µM with THP-1.
For the compound `CC1=C2[C@H]3OC(=O)C4(CC(c5ccc(Br)c(F)c5)=NO4)[C@@H]3CC[C@@]2(C)C=CC1=O` (stereo partly drawn), the IC50 came out at 33 µM with HEp-2; 0.9 µM in the assay on MCF7; 3.1 µM in the assay on A549; 2 µM in the assay on PC-3; 15 µM with HCT-116; 0.6 µM in the assay on THP-1.
With `CC1=C2[C@H]3OC(=O)C4(C[C@H](c5cc(Cl)ccc5Cl)N(c5ccccc5)O4)[C@@H]3CC[C@@]2(C)C=CC1=O` (stereo partly drawn), the IC50 in the assay on HEp-2 turned out to be 100 µM; in the assay with MCF7 it was 0.1 µM; in the assay on A549, 77 µM; in the assay on PC-3 it was 0.7 µM; with HCT-116, 32 µM; with THP-1, 0.2 µM.
Take `COc1ccc([C@@H]2CC3(ON2c2ccccc2)C(=O)O[C@@H]2C4=C(C)C(=O)C=C[C@]4(C)CC[C@H]23)cc1Br` (stereo partly drawn): the IC50 came to 100 µM in the assay with HEp-2; 50 µM in the assay with MCF7; 2.7 µM with A549; 0.1 µM in the assay with PC-3; 45 µM with HCT-116; 100 µM with THP-1.
For `CC1=C2[C@H]3OC(=O)C4(CC(c5c6ccccc6cc6ccccc56)=NO4)[C@@H]3CC[C@@]2(C)C=CC1=O` (stereo partly drawn), the concentration for half-maximal inhibition (IC50) in the assay with HEp-2 was determined as 50 µM; with MCF7 it was 0.2 µM; in the assay on A549, 45 µM; in the assay with PC-3, 0.3 µM; in the assay on HCT-116, 45 µM; with THP-1, 0.8 µM.
As to `CC1=C2[C@H]3OC(=O)C4(C[C@@H](c5cc(F)cc(F)c5)N(c5ccccc5)O4)[C@@H]3CC[C@@]2(C)C=CC1=O` (stereo partly drawn), the IC50 in the assay on HEp-2 was found to be 100 µM; in the assay on MCF7, 3.9 µM; with A549 it was 14 µM; in the assay with PC-3, 1.4 µM; in the assay with HCT-116, 28 µM; with THP-1, 0.8 µM.
Regarding `CC1=C2[C@H]3OC(=O)C4(C[C@H](c5cc(F)cc(F)c5)N(c5ccccc5)O4)[C@@H]3CC[C@@]2(C)C=CC1=O` (stereo partly drawn), the IC50 in the assay on HEp-2 worked out at 100 µM; in the assay with MCF7, 0.09 µM; with A549, 100 µM; in the assay with PC-3 it was 0.7 µM; in the assay on HCT-116 it was 0.09 µM; with THP-1, 25 µM.
On to `CC1=C2[C@H]3OC(=O)C4(CC(c5cc(F)cc(F)c5)=NO4)[C@@H]3CC[C@@]2(C)C=CC1=O` (stereo partly drawn), for which the IC50 in the assay on HEp-2 came to 100 µM; with MCF7, 0.5 µM; with A549 it was 8.2 µM; with PC-3, 2.2 µM; in the assay with HCT-116, 100 µM; in the assay with THP-1, 0.4 µM.
Take `COc1ccc(C2=NOC3(C2)C(=O)O[C@@H]2C4=C(C)C(=O)C=C[C@]4(C)CC[C@H]23)cc1` (stereo partly drawn): the IC50 in the assay with HEp-2 was determined as 100 µM; in the assay with MCF7, 0.02 µM; with A549, 0.2 µM; in the assay with PC-3, 100 µM; with HCT-116 it was 52 µM; in the assay with THP-1, 7.9 µM.
With `CC1=C2[C@H]3OC(=O)C4(CC(c5ccc(Cl)cc5Cl)=NO4)[C@@H]3CC[C@@]2(C)C=CC1=O` (stereo partly drawn), the IC50 with HEp-2 amounted to 29 µM; in the assay with MCF7 it was 95 µM; in the assay with A549 it was 13 µM; in the assay on PC-3, 26 µM; with HCT-116 it was 29 µM; in the assay on THP-1, 35 µM.
With `CC1=C2[C@H]3OC(=O)C4(C[C@@H](c5cc(Cl)ccc5Cl)N(c5ccccc5)O4)[C@@H]3CC[C@@]2(C)C=CC1=O` (stereo partly drawn), the IC50 with HEp-2 was 0.6 µM; with MCF7 it was 0.5 µM; in the assay with A549, 55 µM; in the assay on PC-3 it was 0.9 µM; in the assay with HCT-116, 100 µM; in the assay with THP-1, 3.9 µM.
